Assay results as given in article PMC12040169 (PLOS Biology, 2025).

Experiment: in vitro
Conditions: human, hela cells, % viability

Row | SMILES | viability at 28.5 h, 10 µM
1 | COc1ccc(C2C(C(=O)c3ccco3)=C(O)C(=O)N2CCN2CCOCC2)cc1OC (centres unmarked) [CBK264544] | 98.8%
2 | COc1cc(CN2CCN(Cc3cccnc3)CC2)cc(OC)c1O [CBK264274G] | 102%
3 | COc1ccccc1NC(=O)C1CN(S(=O)(=O)c2ccccc2)CCN1S(=O)(=O)c1ccccc1 (centres unmarked) [CBK262673] | 93.5%
4 | CS(=O)(=O)c1ccc(-c2ccc3c(n2)CCN(C2CCN(C(=O)OCc4ccccc4)CC2)C3)cc1 [CBK169530] | 81.8%
5 | Cc1noc(C)c1C(=O)N1CCN(CCc2ccccc2)CC1 [CBK200225] | 95.8%
6 | C=CCC1(CC=C)CCN1C(=O)c1sc2ncn(C)c(=O)c2c1C [CBK282637] | 84.7%
7 | CC1CCN(S(=O)(=O)N2CCCC2c2cccc(F)c2)CC1 (centres unmarked) [CBK281957] | 93.2%
8 | O=C(O)c1ccc(COc2ccccc2/C=N/O)cc1 [CBK288481] | 108%
9 | CC(=O)N1N=C(c2ccc3c(c2)OCO3)CC1c1ccc(C(=O)O)cc1 (centres unmarked) [CBK286547] | 95.4%
10 | Cn1nccc1C(=O)N1CCCC(c2cc3cccnc3[nH]2)C1 (centres unmarked) [CBK284929] | 92.7%
11 | COc1ccc(CN(CCN(C)C)C(=O)NCc2ccc(-c3ccccc3)cc2)cc1OC [CBK159293] | 91.4%
12 | Cc1nc(NC(=O)Cn2c3c(c4ccccc42)CCC3)nn1C [CBK281377] | 85.5%
13 | O=C(NCc1c(O)c(Cl)cc(Cl)c1Cl)c1ccccc1 [CBK260920] | 94.2%
14 | CCCC(=O)NC1CC(C)(C)Cc2nc(N3CCOCC3)ncc21 (centres unmarked) [CBK306883] | 94.7%
15 | Cc1ccc(C(F)(F)F)cc1NCc1csc(C2CCCO2)n1 (centres unmarked) [CBK305424] | 92.8%
16 | Cc1nn(C)c2ncc(S(=O)(=O)Nc3cc(C(N)=O)ccc3Cl)cc12 [CBK306104] | 70%
17 | COc1ccc(-n2nc3ccc(NC(=O)c4sc5ccccc5c4Cl)cc3n2)cc1Cl [CBK264633] | 94.5%
18 | CC(=O)NC[C@H]1CN(c2ccc(-c3nnc(C(C)O)s3)c(F)c2)C(=O)O1 (some centres unmarked) [CBK017968] | 99.6%
19 | O=C(CN1C(=O)c2ccccc2C1=O)Nn1cnnc1 [CBK263789] | 99.6%
20 | COc1ccc(C(C)C)cc1-c1nccnc1NCc1ccc(S(C)(=O)=O)cc1 [CBK036903] | 92.5%
21 | CC1(C)O[C@@H]2O[C@@H](C(O)CNC(=O)c3ccccc3)[C@@H](NC(=O)c3ccccc3)[C@@H]2O1 (some centres unmarked) [CBK008727] | 101%
22 | COc1ccc2nc3cc(Cl)ccc3c(NCCO)c2c1 [CBK011939] | 43.8%

Row | SMILES | viability at 28.5 h, 10 µM
23 | CCSc1nn(CC)c2oc3c(c2c1=S)CC(C)(C)OC3 [CBK021960] | 105%
24 | O=C(Cn1nnc2ccccc21)NCCN1CCCC1 [CBK267200] | 106%
25 | Nc1ncnc2[nH]c(SCc3nc4ccc(I)cc4c(=O)n3-c3ccccc3)nc12 [CBK267174] | 96.2%
26 | CCCc1nc(NC(C)=O)c(C#N)c(-c2ccco2)c1CC [CBK018074] | 100%
27 | Cc1cc(C)cc(NC(=O)C2CC(=O)N=C(NCc3ccccc3)N2)c1 (centres unmarked) [CBK269054] | 87.1%
28 | COc1ccc(C)cc1S(=O)(=O)n1ccc2c(CNC3CCN(C(C)C)CC3)cccc21 [CBK113310T] | 117%
29 | O=C(CSc1nnc(-c2cccnc2)n1Cc1ccccc1)Nc1ccc(Br)cc1 [CBK267527] | 94.5%
30 | Cc1ccc(C2=N/C(=C/c3ccc(OS(=O)(=O)c4ccc(C)c([N+](=O)[O-])c4)cc3)C(=O)O2)cc1 [CBK264647] | 99.1%
31 | CNC(=O)Cn1nc(C)c2cnn(-c3ccccc3)c2c1=O [CBK287669] | 92.8%
32 | Nc1cc2cccnc2c(-c2ccc(OC(F)(F)F)cc2)n1 [CBK061926] | 90%
33 | O=C(CSc1nnc(Cc2cccc3ccccc23)n1-c1ccccc1)NC1CC1 [CBK267382] | 86.3%
34 | Cc1ccc(S(=O)(=O)N[C@H]2CO[C@H]3[C@@H]2OC[C@@H]3n2nnnc2Oc2ccccc2)cc1 [CBK289485] | 82.4%
35 | O=C(CSc1ccc2nnc(-c3ccccc3)n2n1)Nc1nccs1 [CBK287516] | 98.6%
36 | CC(C)(C)c1ccc(NC(=O)n2ccc3c(N4CCNCC4)cccc32)cc1 [CBK003736C] | 27%
37 | CCOC(=O)N1CCN(CCC(=O)Nc2ccc3c(c2)CCC3)CC1 [CBK264220] | 111%
38 | O=[N+]([O-])c1ccccc1OCCCn1cnc2ccccc21 [CBK267820G] | 44.2%
39 | COc1ccc(C(=O)C2=C(O)C(=O)N(CCN3CCOCC3)C2c2ccc(Cl)cc2)cc1 (centres unmarked) [CBK264718] | 103%
40 | O=C(CO)N1CC2(CCN(Cc3ccc4ccccc4c3)CC2)c2ccccc21 [CBK131501] | 88.7%
41 | O=C(O)Cn1nnc(-c2ccc(OCc3cccc(C(F)(F)F)c3)cc2)n1 [CBK267034] | 97.7%
42 | O=C(Nc1ccc(C(F)(F)F)cc1)C1CCCS1 (centres unmarked) [CBK006142] | 92.5%
43 | O=S(=O)(N1CCCCC1)N1CCN(CC(O)COc2ccc(-c3ccccc3)cc2)CC1 (centres unmarked) [CBK269370] | 94.9%
44 | O=C(O)CCSc1nc2ccccc2nc1N1CCCC1 [CBK107862] | 95.7%
